Experiments:
[1] = biological target: T1, PSMA on LNCaP cells (Homo sapiens, UniProt Q04609); test: Multi-concentration competitive binding assay against 99mTc-MIP-1427
T1 construct: host or cells: LNCaP
Procedure: The PSMA-expressing human prostate cancer cell line, LNCaP, was obtained from the American Type Culture Collection. Cell culture supplies were obtained from Invitrogen (USA) unless otherwise noted. LNCaP cells were maintained in RPMI-1640 medium supplemented with 10% fetal bovine serum (Hyclone), 4 mM L-glutamine, 1 mM sodium pyruvate, 10 mM N-2-hydroxyethylpiperazine-N-2-ethanesulfonic acid (HEPES), 2.5 mg/mL D-glucose, and […] gentamicin in a humidified incubator at 37° C./5% CO2. Cells were removed from flasks for passage or for transfer to 12-well assay plates by incubating them with 0.25% trypsin/ethylenediaminetetraacetic acid (EDTA).
The IC50 of metal-free RPS-085 was determined in a multi-concentration competitive binding assay against ^99mTc-MIP-1427 (Hillier et al., J Nucl Med. 2013; 54: 1369-76) for binding to PSMA on LNCaP cells, according to previously described methods (Kelly et al., Eur J Nucl Med Mol Imaging. 2018; 45: 1841-51). RPS-085 was added in to the wells in final concentrations ranging from 1 pM-10 μM. The assay was performed in triplicate, and the IC50 was expressed as mean±standard deviation.

[2] = Plasma stability; type: in vitro ADME, human; conditions: 24 h, 37° C.
Procedure: The plasma stability of [^67Cu]Cu-RPS-085 was determined according to previously described methods (Alt, et al., Mol Pharmaceutics. 2014; 11: 2855-63). Briefly, frozen human plasma was purchased from Sigma Aldrich (USA), thawed at 37° C., and 200 μL aliquots were transferred to Eppendorf tubes. A 100 μL aliquot of [^67Cu]Cu-RPS-085 in 10% EtOH/saline was added to each tube, and the mixture was shaken at 300 rpm for 24 h at 37° C. on an Eppendorf ThermoMixer® C (VWR, USA). The experiment was performed in triplicate. The proteins were precipitated by addition of 600 μL acetonitrile. The samples were centrifuged at 13500 rpm for 3 min in an Eppendorf 5424-R Centrifuge. The supernatant was analyzed by analytical reverse phase (radio)HPLC as described above. After 24 h incubation in human plasma, [^67Cu]Cu-RPS-085 was 97.4±0.4% intact. The lone radiochemical impurity was an unidentified fragment of the parent compound.

[3] = tested on: LNCaP xenografts; test: Tissue biodistribution in mice bearing LNCaP xenografts; type: in vivo, male Balb/C nu/nu mice; conditions: for activity in kidneys / tumor uptake: i.v., ±SEM
Procedure: All animal studies were approved by the Institutional Animal Care and Use Committee of Weill Cornell Medicine and were undertaken in accordance with the guidelines set forth by the USPHS Policy on Humane Care and Use of Laboratory Animals. The mice were housed under standard conditions in approved facilities with 12 h light/dark cycles. Food and water was provided ad libitum throughout the course of the studies. Male BALB/c athymic nu/nu mice were purchased from the Jackson Laboratory (USA). Prior to inoculation, LNCaP cells were suspended at a density of 4×10^7 cells/mL in a 1:1 mixture of PBS (VWR, USA):Matrigel (BD Biosciences, USA). Each mouse was injected subcutaneously in the left flank with 0.25 mL of the cell suspension. The animals were monitored twice weekly until palpable tumors emerged.
When tumor size reached approximately 200 mm^3, mice (n=4/time point) were administered 3.8±0.1 MBq [^64Cu]Cu-RPS-085 or 0.8±0.005 MBq [^67Cu]Cu-RPS-085 by intravenous injection. The total mass dose received by each animal was approximately 50 ng (31 pmol) and approximately 28 ng (17 pmol) for the [^64Cu]Cu-RPS-085 and [^67Cu]Cu-RPS-085 studies, respectively. The mice were sacrificed at 4 h, 24 h, or 48 h p.i. ([^64Cu]Cu-RPS-085) or 4 h, 24 h, and 96 h ([^67Cu]Cu-RPS-085). A blood sample was collected, and the following tissues were collected and weighed wet using a digital balance: heart, lungs, liver, stomach, small intestine, large intestine, spleen, pancreas, kidneys, muscle, bone, and tumor. The tissues were counted on a Wizard2 Automatic Gamma Counter (Perkin Elmer, USA) against a 1% injected dose standard. The counts were corrected for decay and for activity injected, and tissue uptake was expressed as percent injected dose per gram (% ID/g). Standard error of the mean (SEM) was calculated for each data point. Statistical analyses were performed using an unpaired t test with GraphPad Prism software. A P value of less than 0.05 was considered significant. The concentration of [67Cu]Cu-RPS-085 found in blood, heart, lungs, liver, small intestine, large intestine, stomach, spleen, pancreas, kidneys, muscle, and bone at 4 h, 24 h, and 96 h, post injection (n=4 per time point) is shown in Table 1 below. Published values for [177Lu]Lu-RPS-063 are shown for comparison; all concentrations are expressed as percent injected dose per organ.

T1 sequence (Q04609 whole entry): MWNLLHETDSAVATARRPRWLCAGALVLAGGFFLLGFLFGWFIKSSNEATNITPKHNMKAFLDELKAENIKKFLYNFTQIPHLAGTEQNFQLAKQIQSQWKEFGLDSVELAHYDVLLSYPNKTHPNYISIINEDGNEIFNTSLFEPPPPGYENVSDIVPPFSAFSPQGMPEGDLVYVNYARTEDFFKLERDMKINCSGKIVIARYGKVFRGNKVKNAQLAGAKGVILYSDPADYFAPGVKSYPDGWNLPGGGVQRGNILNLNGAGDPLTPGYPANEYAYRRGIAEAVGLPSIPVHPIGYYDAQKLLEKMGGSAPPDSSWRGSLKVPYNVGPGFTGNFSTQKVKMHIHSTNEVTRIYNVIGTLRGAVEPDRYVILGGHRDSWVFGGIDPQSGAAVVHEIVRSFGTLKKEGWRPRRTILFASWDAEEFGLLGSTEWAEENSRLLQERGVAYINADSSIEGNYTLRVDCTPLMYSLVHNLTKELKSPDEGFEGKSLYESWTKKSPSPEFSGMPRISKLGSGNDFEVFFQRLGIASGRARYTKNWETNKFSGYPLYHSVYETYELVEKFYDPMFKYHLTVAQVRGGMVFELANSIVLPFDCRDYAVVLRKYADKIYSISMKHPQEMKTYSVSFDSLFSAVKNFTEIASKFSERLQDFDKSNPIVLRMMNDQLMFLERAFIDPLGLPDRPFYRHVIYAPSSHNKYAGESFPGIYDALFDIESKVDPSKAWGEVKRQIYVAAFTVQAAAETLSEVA

Compound: CC12CNCCNCC(NC(=O)CCCC(=O)NCCCC[C@H](NC(=O)CCOCCOCCOCCn3cc(-c4cccc(NC(=O)NCCCC[C@H](NC(=O)N[C@@H](CCC(=O)O)C(=O)O)C(=O)O)c4)nn3)C(=O)N[C@@H](CCCCNC(=O)Cc3ccc(I)cc3)C(=O)O)(CNCCNC1)CNCCNC2 [RPS-085]
- IC50 [1]: 29.1 ± 2.4 nM
- affinity for PSMA relative to parent compound RPS-063 [1]: reduced by approximately one order of magnitude

Compound: CC12CNCCNCC(NC(=O)CCCC(=O)NCCCC[C@H](NC(=O)CCOCCOCCOCCn3cc(-c4cccc(NC(=O)NCCCC[C@H](NC(=O)N[C@@H](CCC(=O)O)C(=O)O)C(=O)O)c4)nn3)C(=O)N[C@@H](CCCCNC(=O)Cc3ccc(I)cc3)C(=O)O)(CNCCNC1)CNCCNC2.[67Cu+2] [[^67Cu]Cu-RPS-085]
- fraction intact after incubation in human plasma [2]: 97.4±0.4%
- uncomplexed [67Cu]Cu2+ after incubation in human plasma [2]: No uncomplexed [^67Cu]Cu^2+ was observed
- activity in kidneys ([3]; 4 h p.i.): 19.7±5.0 % ID/g
- tumor uptake ([3]; 4 h p.i.): 12.5±2.7 % ID/g
- Concentration in Blood ([3]; 4 h post injection): 0.02057 percent injected dose per organ
- Concentration in Bone ([3]; 4 h post injection): 0.003853 percent injected dose per organ
- Concentration in Heart ([3]; 4 h post injection): 0.01078 percent injected dose per organ
- Concentration in Kidneys ([3]; 4 h post injection): 11.63 percent injected dose per organ
- Concentration in Large Intestine ([3]; 4 h post injection): 0.29 percent injected dose per organ
- Concentration in Liver ([3]; 4 h post injection): 0.2795 percent injected dose per organ
- Concentration in Lungs ([3]; 4 h post injection): 0.0358 percent injected dose per organ
- Concentration in Muscle ([3]; 4 h post injection): 0.002757 percent injected dose per organ
- Concentration in Pancreas ([3]; 4 h post injection): 0.00535 percent injected dose per organ
- Concentration in Small Intestine ([3]; 4 h post injection): 0.1493 percent injected dose per organ
- Concentration in Spleen ([3]; 4 h post injection): 0.02732 percent injected dose per organ
- Concentration in Stomach ([3]; 4 h post injection): 0.05547 percent injected dose per organ
- activity in kidneys ([3]; 24 h p.i.): 4.5±0.8 % ID/g
- tumor uptake ([3]; 24 h p.i.): 7.9±0.9 % ID/g
- Concentration in Blood ([3]; 24 h post injection): 0.005816 percent injected dose per organ
- Concentration in Bone ([3]; 24 h post injection): 0.001592 percent injected dose per organ
- Concentration in Heart ([3]; 24 h post injection): 0.0068 percent injected dose per organ
- Concentration in Kidneys ([3]; 24 h post injection): 1.857 percent injected dose per organ
- Concentration in Large Intestine ([3]; 24 h post injection): 0.1354 percent injected dose per organ
- Concentration in Liver ([3]; 24 h post injection): 0.1811 percent injected dose per organ
- Concentration in Lungs ([3]; 24 h post injection): 0.01881 percent injected dose per organ
- Concentration in Muscle ([3]; 24 h post injection): 0.001018 percent injected dose per organ
- Concentration in Pancreas ([3]; 24 h post injection): 0.002143 percent injected dose per organ
- Concentration in Small Intestine ([3]; 24 h post injection): 0.08652 percent injected dose per organ
- Concentration in Spleen ([3]; 24 h post injection): 0.008292 percent injected dose per organ
- Concentration in Stomach ([3]; 24 h post injection): 0.04228 percent injected dose per organ
- tumor-to-kidney ratio ([3]; 96 h p.i.): 3.0±0.5
- activity in kidneys ([3]; 96 h p.i.): 1.7±0.3 % ID/g
- tumor uptake ([3]; 96 h p.i.): 5.1±3.3 % ID/g
- Concentration in Blood ([3]; 96 h post injection): 0.003526 percent injected dose per organ
- Concentration in Bone ([3]; 96 h post injection): 0.001075 percent injected dose per organ
- Concentration in Heart ([3]; 96 h post injection): 0.008094 percent injected dose per organ
- Concentration in Kidneys ([3]; 96 h post injection): 0.6854 percent injected dose per organ
- Concentration in Large Intestine ([3]; 96 h post injection): 0.1379 percent injected dose per organ
- Concentration in Liver ([3]; 96 h post injection): 0.1208 percent injected dose per organ
- Concentration in Lungs ([3]; 96 h post injection): 0.01063 percent injected dose per organ
- Concentration in Muscle ([3]; 96 h post injection): 0.000956 percent injected dose per organ
- Concentration in Pancreas ([3]; 96 h post injection): 0.003044 percent injected dose per organ
- Concentration in Small Intestine ([3]; 96 h post injection): 0.06091 percent injected dose per organ
- Concentration in Spleen ([3]; 96 h post injection): 0.005006 percent injected dose per organ
- Concentration in Stomach ([3]; 96 h post injection): 0.04483 percent injected dose per organ
- accumulated activity (Ã) in kidneys ([3]; over 96 h p.i.): 538 (% ID/g)·h
- accumulated activity (Ã) in tumors ([3]; over 96 h p.i.): 699 (% ID/g)·h
- Ãtumor relative to [177Lu]PSMA-617 ([3]; over 96 h p.i.): 1.3 times
- Ãtumor/Ãkidney ratio ([3]; over 96 h p.i.): 1.3
